Holding throughout (format): cell-based, human
One assay has as its system Hedgehog signaling. Description: Inhibition of Hedgehog signaling in PSC-ESF/EEO co-cultures with cyclopamine, qPCR. The method, then:
FIG. 12a-FIG. 12d. […] Related to FIG. 5 a. Schematic of treatment paradigm for inhibition of Hedgehog signaling. Co-cultures were cultured in vehicle treatment media with either 10 uM cyclopamine (+) or vehicle (EtOH, −). After 48 h co-cultures were harvested for RNA and qPCR analysis. b. Gene expression of direct downstream mediators of IHH signaling: GLI1 and GLI2. […] (d12 v.−ns p-value=0.0953; −v.+ns p-value−v.+p-value=0.2661). c. […] (Lachman, A., 2010; ENCODE Project Consortium, 2011) d. Top 10 pathways enriched in decidualized co-cultured PSC-ESF over decidualized monolayer ESF as analyzed by the integrated Bioplanet 2019 platform. Both enrichment analyses done using Enrichr with a 2-fold cutoff ((http://amp.pharm.mssm.edu/Enrichr/).
BMP2, a member of the TGF B family, is necessary for decidualization (FIG. 5d). BMP2 in ESF can be activated by hormone treatments, such as P4 and cAMP, which directly increase BMP2 expression to mediate decidualization in hESF (Lee et al., 2007). In the mouse, stromal BMP2 is further amplified indirectly by P4 activated IHH from the luminal epithelium (Lee et al., 2007). Increased stromal BMP2 subsequently mediates decidualization by activating WNT (WNT4) signaling, FK506-binding proteins (FKBP5), and prostaglandin (PTGS1) (Li et al., 2013). To examine the hormone mediated activation of IHH signaling in co-cultured PSC-ESF, we analyzed expression of IHH and BMP signaling targets after decidualization. […] HOXA10, a mediator of stromal hormone response, was not increased by co-culture. However, it trended towards an increase after hormone treatment, though without statistical significance (FIG. 5e). Importantly, we observed that BMP2 and BMP2 signaling targets (WNT4, FKBP5, and PTGS1) also were increased in expression in response to co-culture, while BMP2, FKBP5, and PTGS1 were further increased by hormone treatment (FIG. 5e).
(§1) qRT-PCR: RNA Isolation was performed using the RNAqueous-Micro Total RNA Isolation Kit (ThermoFisher Scientific #AM1931) following manufacturer's instructions. DNAse treatment and reverse transcription were performed using SuperScript IV VILO Master Mix with ezDNase Enzyme (ThermoFisher Scientific #11766050) following manufacturer's instructions. Quantitative PCR was performed using SYBR Green PCR Master Mix (ThermoFisher Scientific #4312704) using the QuantStudio 7. ESC and iPSC differentiated cells were used for analysis. A list of primers can be found in Table 1.

For assay [1], the system named is pluripotent stem cells (PSC). Description: Differentiation of PSC to intermediate mesoderm with CHIR99021, marker expression by qPCR/ICC.
Source text: Generation of ESF from pluripotent stem cells (PSC) involves sequential differentiation of the cells through a series of intermediate progenitor cells species (FIG. 6). The first step (FIG. 1a) requires the specification of intermediate mesoderm (IM), a common mesodermal progenitor for both nephric and reproductive tracts (Yucer et al., 2017). […] We observed high levels of mesodermal-specific Brachyury (TBXT) gene expression, and concurrent reduction of pluripotency markers OCT3/4 and SOX2 in 2 days (FIG. 1b, d). LHX1 and PAX2, two transcription factors expressed in the intermediate mesoderm (IM), also were detected at this time (FIG. 1c, d). […] At day 4 of differentiation, TBXT expression was decreased, LHX1 and PAX2 expression was either maintained or increased, and expression of anti-Müllerian hormone receptor 2 (AMHR2), a specific marker of Müllerian duct mesenchyme, increased (FIG. 1b, c, e).
(§2) Monolayer Cell Culture and Differentiation: Both embryonic (H7) and iPS (reprogrammed from Coriell fibroblast GM03651 by Sendai virus (ThermoFisher #A16517) following manufacturer's instruction) cells lines of female origin (XX) were used for differentiation as well as co-culture. Cells were cultured in mTeSR1 media (STEMCELL Technologies #85875) and on Corning Matrigel hESC-Qualified Matrix (Corning™ #354277) coated tissue culture plastic plates. Lot specific dilution factor volume provided by the manufacturer is diluted into 24 mL of cold DMEM/F12 (ThermoFisher Scientific #11320-082). To coat: 1 mL of this solution is applied to 1 well of a 6 well plate (9.6 cm^2) and incubated at RT for 1 hr or 37 C for 30 min. To differentiate, PSC were dissociated to single-cell level using Accutase (EMD Millipore #SCR005). Once at single cell level, equal volume mTeSR1 was added to stop dissociation and cells were pelleted at 0.2e3 rcf for 5 min. Supernatant was discarded and the remaining pellet of PSC was resuspended in mTeSR1 and 10 μM Y27632 (Reprocell #04-0012-02) and plated onto Corning Matrigel hESC-Qualified Matrix coated tissue culture plates at 3×10^5 per 3.8 cm^2 or equivalent density. Media is replaced with Differentiation Basal Media (Advanced RPMI 1640 (Gibco #12633020), 1× Gluatmax (Gibco #35050061) and […] CHIR99021 (STEMCELL Technologies #72054). After 4 days, the media is changed to Differentiation Basal Media containing 100 ng/mL recombinant Human WNT7A (R&D Systems #3008-WN-025). The final differentiation treatment media was Differentiation Basal Media with 10 ng/mL Recombinant Human BMP2 (R&D Systems #355-BM010), and 10 nM β-estradiol (E2, Millipore Sigma #E2758-250MG). While it varies by cell line, the expected yield at day 12 off differentiation when starting with 3×10^5 stem cells is 0.6×10^6-13.2×10^6 PSC-ESF.
as §1
Immunocytochemistry: Monolayer cultures: cells cultured on Matrigel coated coverslips were washed with 1×DPBS (Corning #21031CV) before fixing the cells using 4% Formaldehyde solution (Millipore Sigma #P6148) for 20 min at room temperature. After 20 min, cells are washed 3 times with 1×DPBS. Prior to staining, cells were blocked for 1 hr at RT in PBS (Fisher Scientific #AM9625), 0.1% BSA (Millipore Sigma #A7906), 0.25% Triton-X (Millipore Sigma #T8787), and 10% Normal Goat Serum (Jackson Immuno Research #005-000-121). Primary Antibodies were diluted into the same buffer for incubation at 4° C. overnight. […]

In assay [2] the test system is PSC derived cells, day 4 of differentiation. Description: WNT7A treatment day 4-8 to expand Müllerian duct mesenchyme (PSC-ESP), marker expression by qPCR/ICC. The method, then:
To preferentially expand the Müllerian duct mesenchyme population, at day 4 we continued activating the WNT/B-catenin pathway with WNT7A (100 ng/ml) treatment from day 4-8. […] The Müllerian duct is patterned along the anterior-posterior axis to develop into the fallopian tubes (HOXA9), endometrium (HOXA10 and HOXA11), cervix (HOXA11), and vagina (HOXA13) (Du and Taylor, 2015). […] Immunocytochemical (ICC) analyses validated the qPCR results with increasing nuclear expression of the HOXA11 transcription factor from day 0 to day 8 (FIG. 1g). The expression of mesenchymal lineage markers platelet derived growth factor beta (PDGFRβ) and vimentin (VIM) supported specification to the stromal cell type (FIG. 1h). HOXA11 was confirmed to be co-expressed with mesenchymal markers AMHR2 and VIM (FIG. 1h, i). […] Further, 93.31+1.46% of the cells were Ki67^+, confirming that the cells at day 8 are in cell cycle (FIG. 1i, j). PSC-ESP at day 8 of differentiation could be frozen and thawed for subsequent differentiation, generating cells with appropriate proliferative properties and lineage-specific marker expression (FIG. 7f, g). In toto, these findings indicate that developmentally and regionally appropriate endometrial stromal progenitors, which we termed PSC-ESP, were generated at this point of the differentiation protocol.
as §2
qRT-PCR: RNA Isolation was performed using the RNAqueous-Micro Total RNA Isolation Kit (ThermoFisher Scientific #AM1931) following manufacturer's instructions. DNAse treatment and reverse transcription were performed using SuperScript IV VILO Master Mix with ezDNase Enzyme (ThermoFisher Scientific #11766050) following manufacturer's instructions. Quantitative PCR was performed using SYBR Green PCR Master Mix (ThermoFisher Scientific #4312704) using the QuantStudio 7. ESC and iPSC differentiated cells were used for analysis. A list of primers can be found in Table 1. […]

The mark [3] stands for this setting: 10 uM cyclopamine, 48 h, vs vehicle (EtOH).
The mark [4] stands for this setting: day 8, after CHIR99021 day 0-4 and WNT7A day 4-8, ICC.

Several values for one entry are separate records, joined by “and”; a condition that tells them apart may be missing. Equal entries are not always repeated.

`CC1=C2C[C@H]3[C@@H](CC=C4C[C@@H](O)CC[C@@]43C)[C@@H]2CC[C@]12O[C@@H]1C[C@H](C)CN[C@H]1[C@H]2C` [cyclopamine]: in the assay with Hedgehog signaling (setting [3]), the GLI1 gene expression result is on record as “significantly downregulated” and the GLI2 gene expression result is “similarly regulated without statistical significance”. Besides, in the assay on Hedgehog signaling (cyclopamine 48 hr, co-culture), the BMP2 expression entry is reported as “trended towards a reduction”, the HOXA10 expression result is reported as “significant reduction” and the NR2F2 expression result is on record as “significant reduction”.
With `Cc1c[nH]c(-c2cnc(NCCNc3ccc(C#N)cn3)nc2-c2ccc(Cl)cc2Cl)n1` [CHIR99021], the “LHX1 and PAX2 (intermediate mesoderm transcription factors) expression” value in assay [1] (8 μM CHIR99021, day 2) was “detected”. In addition, in assay [1] (8 μM CHIR99021, day 2 vs day 0, qPCR), the “mesodermal-specific Brachyury (TBXT) gene expression” value is “high levels”. Moreover, the “expression of AMHR2, marker of Müllerian duct mesenchyme” value in assay [1] (8 μM CHIR99021, day 4 of differentiation) is recorded as “increased”. Further, the “pluripotency markers OCT3/4 and SOX2” value in assay [1] (8 μM CHIR99021, in 2 days, qPCR/ICC) is given as “reduction”. In assay [1] (8 μM CHIR99021, qPCR), the “expression of endoderm and mesendoderm marker SOX17” value is “low but significant increase”. In assay [1] (CHIR99021 treatment of PSC), the “cell expansion of treated PSC” value was “rapid expansion of cells”. Besides, the “LHX1 and PAX2 induction, comparison of concentrations of CHIR99021” value in assay [1] (day 4, ESC, both concentrations of CHIR99021) is recorded as “highly, but differently induced”.

B1: WNT7A: recombinant Human WNT7A (R&D Systems), used as second Wnt/β-catenin agonist (protein, UniProt O00755 32-349, looked up)
Protein Wnt-7a: LGASIICNKIPGLAPRQRAICQSRPDAIIVIGEGSQMGLDECQFQFRNGRWNCSALGERTVFGKELKVGSREAAFTYAIIAAGVAHAITAACTQGNLSDCGCDKEKQGQYHRDEGWKWGGCSADIRYGIGFAKVFVDAREIKQNARTLMNLHNNEAGRKILEENMKLECKCHGVSGSCTTKTCWTTLPQFRELGYVLKDKYNEAVHVEPVRASRNKRPTFLKIKKPLSYRKPMDTDLVYIEKSPNYCEEDPVTGSVGTQGRACNKTAPQASGCDLMCCGRGYNTHQYARVWQCNCKFHWCCYVKCNTCSERTEMYTCK
For the molecule B1, the “expression of endometrium specific genes HOXA10 and HOXA11” value in assay [2] (100 ng/mL WNT7A day 4 to day 8, only in the 8 uM CHIR99021 condition) is listed as “only induced high expression”. Further, in assay [2] (100 ng/ml WNT7A, day 4-8, qPCR), the “Müllerian mesenchyme specific AMHR2 expression” value is “further induced” and the “epithelium specific marker WNT7A expression” value is “did not induce”. In assay [2] (100 ng/ml WNT7A, day 8 of differentiation, qPCR), the “HOXA10 and HOXA11 expression” value is recorded as “significantly upregulated”. Moreover, the “HOXA9 (fallopian tube) and HOXA13 (vagina) expression” value in assay [2] (WNT7A day 4 through 8, d4 vs d8, qPCR) is listed as “not significantly upregulated”. For the same molecule, in assay [2] (setting [4]), the “DAPI+ cells expressing both AMHR2 and HOXA11” value is 78.55+8.17% and 78.5%; the “DAPI+ cells positive for HOXA11” value is 92.27+5.15% and 92.3%; the “cells Ki67+” value was 93.31+1.46% and 93.3%.

The values above are taken from patent publication US12681006B2, “Methods of generating human endometrial stromal fibroblasts and three-dimensional multi-layered human endometrial tissue compositions” (Northwestern University, priority 2021, dated 2026).
